# Key:
# [1] = test system: Candida glabrata Cg003; assay: microbe, parasite or virus in culture; assay type: cell-based; details: for MIC: Nakaseomyces glabratus, CG003, 24 h, read-out: Growth inhibition MIC Candida glabrata Cg003
# Experimental: Fungal isolates were purchased from American Type Culture Collection, except for C. glabrata strain Cg003, which was kindly provided by Julius Subik, Comenius University in Bratislava, Slovak Republic. […] Saccharomyces cerevisiae (ATCC 9763), Candida albicans (ATCC 90028), Candida albicans (SC5314), Candida glabrata (ATCC 90030), Candida glabrata (Cg003) and Candida krusei (ATCC 6258) were grown in Sabouraud broth (40 g/L D-glucose, 10 g/L peptone, pH 5.6) or YPD (10 g/L yeast extract, 20 g/L Bacto-peptone, 20 g/L glucose) medium to mid log phase, aliquoted into 20% (v/v) glycerol and cryopreserved as stocks at -80°C. For each growth assay, cells from these stocks were diluted in sterile water to OD600 = 0.025, which corresponds to a final starting inoculum of 0.5–2.5 x 10^5 CFU/mL. Growth assays were carried out by pipetting 3 μL compound dissolved in DMSO, 100 μL cell suspension and 97 μL 2 x RPMI media (20.8 g/L RPMI-1640 (Sigma-Aldrich catalog number R6504) 330 mM MOPS, 36 g/L glucose) into a microtiter plate and incubating for 24 h at 34°C, followed by OD measurement at 490 nm.
# [2] = test system: Candida albicans SC5314; assay: Fungal growth inhibition, C. albicans SC5314; assay type: cell-based; details: MIC defined as 50% growth inhibition, 24 h, n = 3–6
# Excerpt: (§1) Fungal isolates were purchased from American Type Culture Collection, except for C. glabrata strain Cg003, which was kindly provided by Julius Subik, Comenius University in Bratislava, Slovak Republic. Cg003 is a clinical isolate, characterized to be resistant to fluconazole and itraconazole due to overexpression of the multidrug resistance efflux pumps Cdr1p and Cdr2p. Saccharomyces cerevisiae (ATCC 9763), Candida albicans (ATCC 90028), Candida albicans (SC5314), Candida glabrata (ATCC 90030), Candida glabrata (Cg003) and Candida krusei (ATCC 6258) were grown in Sabouraud broth (40 g/L D-glucose, 10 g/L peptone, pH 5.6) or YPD (10 g/L yeast extract, 20 g/L Bacto-peptone, 20 g/L glucose) medium to mid log phase, aliquoted into 20% (v/v) glycerol and cryopreserved as stocks at -80°C. For each growth assay, cells from these stocks were diluted in sterile water to OD600 = 0.025, which corresponds to a final starting inoculum of 0.5–2.5 x 10^5 CFU/mL. Growth assays were carried out by pipetting 3 μL compound dissolved in DMSO, 100 μL cell suspension and 97 μL 2 x RPMI media (20.8 g/L RPMI-1640 (Sigma-Aldrich catalog number R6504) 330 mM MOPS, 36 g/L glucose) into a microtiter plate and incubating for 24 h at 34°C, followed by OD measurement at 490 nm. The minimum inhibitory concentration (MIC) was defined as 50% growth inhibition of the microorganism as this measurement best represented the antifungal activity of the compounds. Standard errors were typically below 5%.
# [3] = test system: Candida glabrata ATCC 90030; assay: Fungal growth inhibition, C. glabrata ATCC 90030; assay type: cell-based; details: Nakaseomyces glabratus, ATCC90030; MIC defined as 50% growth inhibition, 24 h, n = 3–6
# Excerpt: as §1
# [4] = target: T1, Mammalian Na^+,K^+-ATPase (Sus scrofa, UniProt P05024); assay: ATP hydrolysis inhibition, Na+,K+-ATPase; assay type: biochemical; details: pig Na+,K+-ATPase, racemic compounds, n = 3
# T1 construct: The pig kidney Na^+,K^+-ATPase purification included a mild SDS treatment of isolated microsomes; from tissue; host or cells: pig kidney microsomes, SDS-treated
# Excerpt: All membrane batches were validated by determining ATPase activity, pH optimum and orthovanadate sensitivity. Sarco/endoplasmatic reticulum (SR) Ca^2+ ATPase was provided in SR membranes purified by extraction with a low concentration of deoxycholate (DOC) and was kindly provided by Claus E. Olesen and Jesper V. Møller, Aarhus University and prepared as described in [43]. The pig kidney Na^+,K^+-ATPase purification included a mild SDS treatment of isolated microsomes followed by a washing step and was kindly provided by Natalya Fedosova, Aarhus University and prepared as described in [44].
# (§2) ATPase activity was determined by measuring the amount of liberated phosphate from ATP hydrolysis. The ATPase assay was performed in 96 well plates in a final reaction volume of 60 μL. 0.1–0.2 μg/well of DOC extracted SERCA membrane or the Na^+,K^+-ATPase was used, while 1–2.5 μg/well was used of the Pma1 membrane preparation. Reactions, including protein membrane preparation and various concentrations of exogenously added compounds, were conducted in the following buffers; Pma1 buffer: 17.5 mM MOPS-NaOH pH 7, 7 mM MgSO4, 44 mM KNO3 (vacuolar ATPase inhibitor), 22 mM NaN3 (mitochondrial ATPase inhibitor), 0.22 mM Na2MoO4 (acid phosphatase inhibitor); SERCA buffer: 9 mM MOPS-NaOH pH 7, 2.7 mM MgCl2, 0.1 mM CaCl2 and 72 mM KCl. Na^+,K^+-ATPase buffer: 30 mM MOPS-NaOH pH 7, 40 mM NaCl, 4 mM MgCl2 and 20 mM KCl. Reactions were initiated by the addition of Na-ATP to a final concentration of 2.5 mM (Pma1 and Na^+,K^+-ATPase) or 5 mM (SERCA), followed by 30 minutes incubation at 30°C. […] Absorption was measured at 860 nm after additional 30 minutes incubation at RT.
# [5] = target: T2, Candida albicans Pma1 (Candida albicans, UniProt P28877); assay: ATP hydrolysis inhibition, C. albicans Pma1; assay type: biochemical; details: racemic compounds, n = 3
# T2 construct: endogenous in cells
# T2 sequence (P28877 whole entry): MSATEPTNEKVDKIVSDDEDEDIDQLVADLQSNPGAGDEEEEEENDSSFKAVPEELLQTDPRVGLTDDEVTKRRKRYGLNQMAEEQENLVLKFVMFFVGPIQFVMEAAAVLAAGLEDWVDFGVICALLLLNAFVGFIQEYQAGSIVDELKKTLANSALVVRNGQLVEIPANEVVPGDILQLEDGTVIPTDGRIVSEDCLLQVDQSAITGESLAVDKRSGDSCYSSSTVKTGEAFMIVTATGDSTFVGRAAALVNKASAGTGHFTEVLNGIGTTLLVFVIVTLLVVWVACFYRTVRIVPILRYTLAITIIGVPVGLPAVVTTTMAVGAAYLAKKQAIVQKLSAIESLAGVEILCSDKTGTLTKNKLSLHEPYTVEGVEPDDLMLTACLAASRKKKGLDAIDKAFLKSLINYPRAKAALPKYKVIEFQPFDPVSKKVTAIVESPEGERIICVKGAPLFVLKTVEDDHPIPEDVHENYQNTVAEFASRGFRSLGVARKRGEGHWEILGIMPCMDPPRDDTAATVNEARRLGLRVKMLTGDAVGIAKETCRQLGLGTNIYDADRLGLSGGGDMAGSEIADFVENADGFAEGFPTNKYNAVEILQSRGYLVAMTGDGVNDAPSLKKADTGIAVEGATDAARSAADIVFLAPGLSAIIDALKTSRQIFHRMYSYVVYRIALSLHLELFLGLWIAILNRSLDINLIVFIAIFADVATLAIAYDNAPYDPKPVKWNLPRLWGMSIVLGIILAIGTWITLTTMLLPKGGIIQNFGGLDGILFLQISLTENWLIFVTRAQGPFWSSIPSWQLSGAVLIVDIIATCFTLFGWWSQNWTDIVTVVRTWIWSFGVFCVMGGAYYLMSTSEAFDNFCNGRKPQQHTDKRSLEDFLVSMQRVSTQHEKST
# Experimental: Candida albicans microsomes were prepared from 100 mL overnight culture in YPD (10 g/L yeast extract (BD, Sparks, MD), 20 g/L Bacto peptone (BD, Sparks, MD), 20 g/L D-(+)-glucose), transferred to 1 L YPD and grown at RT, 150 rpm, for 7 h. Cells were harvested and washed in deionized water followed by centrifugation at 3360 x g. The cells were glucose-activated by the addition of 10% (w/v) D-(+)-glucose for 10 minutes while shaking. This suspension was then centrifuged at 3,360 x g for 3 minutes and 60–80 g of cells (wet weight) were resuspended in homogenization buffer (50 g/L glucose, 28.3% (v/v) glycerol, 100 mM Tris-HCl pH 7.25, 10 mM EDTA pH 8.0, 50 mM KCl, 1 mM DTT, 200 μM PMSF, 2 μg/ml Pepstatin A), and disrupted with 165 g glassbeads (500 μm diameter) in a BeadBeater (Biospec Product, Bartlesville, OK). The disrupted cells were centrifuged at 4°C for 5 and 15 minutes at 1,400 x g and 12,000 x g, respectively. The supernatant was collected and centrifuged at 251,000 x g for 1 h, and the membrane fraction was collected and homogenized in GTEK20 buffer (20% (v/v) glycerol, 10 mM Tris-HCl pH 7.25, 25 mM KCl, 0.5 mM EDTA pH 8.0, 1 mM DTT, 0.2 mM PMSF, 2 μg/mL Pepstatin A).
# as §2
smiles,measurement,setting,value
NC1CCCc2c1[nH]c1cc(OC(F)(F)F)ccc21 (stereo not shown) [Compound 4],MIC,[1],75 µM
same,MIC,[2],100 ± 43 µM
same,MIC,[3],23.7 µM
same,IC50,[4],37.2 ± 13.6 µM
same,IC50,[5],46 ± 14.5 µM
CN1CCC(NC2CCCc3c2[nH]c2cc(OC(F)(F)F)ccc32)CC1 (stereo not shown) [Compound 5],MIC,[1],> 75 µM
same,MIC,[2],150 µM
same,MIC,[3],46.5 ± 27 µM
same,IC50,[4],132 ± 35.2 µM
same,IC50,[5],130 ± 32.2 µM
FC(F)(F)Oc1ccc2c3c([nH]c2c1)C(NCc1ccc(Cl)cc1)CCC3 (stereo not shown) [Compound 6],MIC,[1],> 75 µM
same,MIC,[2],7.5 µM
same,MIC,[3],12.1 ± 7.9 µM
same,IC50,[4],0.72 ± 0.3 µM
same,IC50,[5],3.89 ± 1.71 µM
FC(F)(F)Oc1ccc2c3c([nH]c2c1)C(NCc1ccc(Br)cc1)CCC3 (stereo not shown) [Compound 7],MIC,[1],> 75 µM
same,MIC,[2],15 µM
same,MIC,[3],15 µM
same,IC50,[4],0.38 ± 0.12 µM
same,IC50,[5],2.47 ± 0.26 µM
FC(F)(F)Oc1ccc2c3c([nH]c2c1)C(NCCOc1ccc(Cl)cc1)CCC3 (stereo not shown) [Compound 8],MIC,[1],> 75 µM
same,MIC,[2],7.5 µM
same,MIC,[3],5.3 ± 2.7 µM
same,IC50,[4],1.07 ± 0.38 µM
same,IC50,[5],3.77 ± 1.04 µM
FC(F)(F)Oc1ccc2[nH]c3c(c2c1)CCCC3NCc1ccc(-c2ccccn2)cc1 (stereo not shown) [Compound 9],MIC,[1],23.7 µM
same,Antifungal activity against C. glabrata strain Cg003 (in words),[1]; strain overexpresses efflux pumps Cdr1p and Cdr2p,exhibited antifungal activity
same,MIC,[2],7.5 µM
same,MIC,[3],7.5 µM
same,IC50,[4],9.76 ± 4.47 µM
same,IC50,[5],5.56 ± 1.55 µM
Clc1ccc2[nH]c3c(c2c1)CCCC3NCc1ccc(-c2ccccc2)cc1 (stereo not shown) [Compound 10],MIC,[1],> 75 µM
same,MIC,[2],6.8 ± 4.6 µM
same,MIC,[3],21 ± 6.6 µM
same,IC50,[4],5.5 ± 2.74 µM
same,IC50,[5],9.7 ± 2.15 µM
Cn1c2c(c3cc(Cl)ccc31)CCCC2NCc1ccc(-c2ccccc2)cc1 (stereo not shown) [Compound 11],MIC,[1],> 20 µM
same,MIC,[2],> 20 µM
same,MIC,[3],> 20 µM
same,IC50,[4],> 20 µM
same,IC50,[5],> 20 µM
CN(Cc1ccc(-c2ccccc2)cc1)C1CCCc2c1[nH]c1ccc(Cl)cc21 (stereo not shown) [Compound 12],MIC,[1],> 20 µM
same,MIC,[2],> 20 µM
same,MIC,[3],> 20 µM
same,IC50,[4],11.8 ± 6.8 µM
same,IC50,[5],> 20 µM

# Reference: article PMC5749684, “Tetrahydrocarbazoles are a novel class of potent P-type ATPase inhibitors with antifungal activity” (PLoS ONE, 2018)
